Where “and” joins values, the source holds several entries; their conditions need not be identical. Equal values may be shown once.

Broadly, the IC50 is the midpoint of a concentration-inhibition curve. As usually defined, the viability is a read-out of living cells in per cent, often relative to untreated cells.

The test system of data set [1] is pERK Thr202/Tyr204. Briefly: pERK HTRF detection of pERK Thr202/Tyr204, HCT116 cells. The format is cell-based. As to conditions: Homo sapiens, HCT-116, 2 h compound. As for the experimental part: (§1) pERK: Detection of pERK Thr202/Tyr204
(§2) A549 cultured in F-12K/10% FBS were seeded at 10000 cells/well, and HCT116 cultured in McCoy's 5A/10% FBS were seeded at 15000 cells/well cells into Corning 384-well plates, respectively. Cells were incubated overnight in a TC incubator. Compounds were serially diluted and added to cells for 2 h in a TC incubator. Cells were then lysed according to manufacture protocol (Cisbio CAT #: 64AERPEG). Cell lysate was mixed with phospho-ERK (Thr202/Tyr204) antibody solution at 5:1 (v:v). Lysate and antibody mixture were incubated overnight at room temperature. HTRF signal was read at two different wavelengths (665 nm and 620 nm) on a compatible HTRF reader.

Data set [2] deals with pMEK. The data set is described as follows: pMEK AlphaLISA (MEK1 pS218/222), A549 cells, EGF stimulated. The format is cell-based. Conditions: Homo sapiens, 2 h compound, EGF 30 ng/ml 15 min. As for the experimental part:
(§3) Determination of pMEK IC50s
(§4) A549 cells were cultured in F12K/10% FBS media (ATCC CAT #21127022) and were seeded at 10000 cells/well and HCT116 cells were cultured in McCoy's 5A/10% FBS media (Gibco Cat #30-2007) were seeded at 15000 cells/well in 384 microplates (Corning CAT #3765). Cells were incubated overnight in a TC incubator. Compounds were serially diluted and added to cells for 2 h in a TC incubator. At the end of the 2 h EGF (R&D Systems 236-EG-200) was added at a final EGF concentration of 30 ng/ml and incubated for 15 minutes at 37° C. in a TC incubator. AlphaLisa (Perkin Elmer) was performed according to manufacturer's instructions (Perkin Elmer CAT #ALPHA.SF ULTRA MEK1 PS218/222). The percent (%) inhibition at each concentration of compound is calculated based on and relative to the AlphaLISA signal in the HPE and ZPE control wells contained within each assay plate. The ZPE control wells contain cells and DMSO as 0% inhibition, and the HPE control wells only contain cells and control compound (Sellekchem Staurosporin CAT #S1421) as 100% inhibition.
On the technique in general: Bead proximity is the source of the signal in Alpha formats.

Data set [3] has as its system pMEK. Briefly: pMEK AlphaLISA (MEK1 pS218/222), HCT116 cells, EGF stimulated. The class given is cell-based. As to conditions: Homo sapiens, HCT-116, 2 h compound, EGF 30 ng/ml 15 min. The protocol:
as §3, §4

The test system of data set [4] is pERK Thr202/Tyr204. Briefly: pERK HTRF detection of pERK Thr202/Tyr204, A549 cells. The class given is cell-based. Conditions: Homo sapiens, 2 h compound. The protocol: as §1, §2
A general note: TR-FRET usually uses a lanthanide donor and a delayed reading to cut background.

Data set [5] relates to IPC298 cells. The data set is described as follows: IPC298 Cell Titer Glow assay (CTG). Conditions: for IC50: read-out: CTG IC50 (nM) Cell Line: IPC298.2.
Protocol: HCT116 and IPC298 Cell Titer Glow Assay (CTG)
HCT116 cells and IPC298 cells were diluted with culture medium to the desired density 500 cells/well and 40 μL of cell suspension were added into each well of 384-well cell culture plate. […] The plates were covered and stored at room temperature for 30 minutes without shaking and then the plates were transferred into a 37° C. 5% CO2 incubator overnight.
A 10 mM solution in dimethyl sulfoxide (DMSO) was prepared for each test compound. A 3 fold, 10-point dilution was prepared from the stock solution. 40 nl of each solution in 100% DMSO was added to the 384-well plate and diluted to a final 0.1% DMSO final concentration. The plates were then incubated for 72 hours (for both cell lines) at 37° C.
CellTiter-Glo® 2.0 Reagent (Promega, G9242) was removed from the refrigerator and equilibrated at room temperature (23° C.) for 60 minutes. The plates were then removed from the incubator and allowed to equilibrate to room temperature. 30 μL CellTiter-Glo® 2.0 Reagent were added to the assay plates, and spun 1 min/1000 rpm. The plates were allowed to stand for about 20 minutes before being read on Envision using a standard luminescence readout. DMSO was employed as negative control (High control, HC) and 1 uM Staurosporine was employed as positive control (Low control, LC).
The percent (%) inhibition at each concentration of compound was calculated based on the signal in the negative and positive control wells contained within each assay plate.
Data set [6] has as its system HCT116 cells. Briefly: HCT116 Cell Titer Glow assay (CTG). Conditions: for IC50 / viability at 1000 µM: Homo sapiens, HCT-116, 72 h; for IC50: read-out: CTG IC50 (nM) Cell Line: HCT116.20; for viability at 1000 µM: read-out: CTG % cell viability 1000 uM HCT116.20, HCT116 cells, 72 hours, 1000 uM. (In general: ATP-based viability assays read luminescence as a measure of living cells.)

Setting [7] is: percent cells remaining after treatment.

`CC(=O)Nc1nccc(Cc2cncc(Nc3ccc(Br)cc3F)c2C)c1F` [Example 3, N-[4-({5-[(4-bromo-2-fluorophenyl)amino]-4-methylpyridin-3-yl}methyl)-3-fluoropyridin-2-yl]acetamide]: the IC50 was less than 10 nM in data set [1], 10 to 100 nM in data set [2], 10 to 100 nM in data set [3] and less than 10 nM in data set [4].

With `CNS(=O)(=O)Nc1nccc(Oc2cncc(Nc3ccc(Cl)cc3F)c2C)c1F` [Example 15, N-(4-chloro-2-fluorophenyl)-5-({3-fluoro-2-[(methylsulfamoyl)amino]pyridin-4-yl}oxy)-4-methylpyridin-3-amine], the 50% inhibitory concentration (IC50) was less than 10 nM in data set [5] (Homo sapiens, IPC-298, 72 h); less than 10 nM in data set [2]; less than 10 nM in data set [3]; 10 to 100 nM in data set [6].

On to `CNS(=O)(=O)Nc1nccc(C(C)c2cncc(Nc3ccc(Cl)cc3F)c2C)c1F` (stereo not drawn) [Example 16], for which the half-inhibitory concentration (IC50) in data set [5] (Homo sapiens, IPC-298, 72 h) was 100 to 500 nM; in data set [2], 10 to 100 nM; in data set [3] it was 10 to 100 nM; in data set [6], greater than 1000 nM. The viability at 1000 µM in data set [6] (setting [7]) amounted to 36.5%.

Turning to `Cc1c(Cc2ccnc(S(C)(=O)=O)c2F)cncc1Nc1ccc(F)cc1F` [Example 17, N-(2,4-difluorophenyl)-5-[(3-fluoro-2-methanesulfonylpyridin-4-yl)methyl]-4-methylpyridin-3-amine], the IC50 in data set [5] (Homo sapiens, IPC-298, 72 h) is greater than 1000 nM; in data set [2], 500 to 1000 nM; in data set [3], greater than 1000 nM; in data set [6], greater than 1000 nM. In addition, the “CTG % cell viability 100 uM IPC298.2” value in data set [5] (IPC298 cells, 72 hours, 100 uM, percent cells remaining after treatment) is 72.73; % and 98.52%. For the same compound, the “CTG % cell viability 1000 uM HCT116.20” value in data set [6] (HCT116 cells, 72 hours, 1000 uM, percent cells remaining after treatment) is listed as 83.74%. Moreover, the viability at 1000 µM in data set [6] (setting [7]) is 68.2%.

Take `CNS(=O)(=O)Nc1nccc(Cc2cncc(Nc3ccc(Cl)cc3F)c2)c1F` [Example 18, 4-[[5-(4-chloro-2-fluoro-anilino)-3-pyridyl]methyl]-3-fluoro-N-(methylsulfamoyl)pyridin-2-amine]: the IC50 in data set [5] (Homo sapiens, IPC-298, 72 h) is 10 to 100 nM; in data set [2] it was less than 10 nM; in data set [3] it was less than 10 nM; in data set [6], 100 to 500 nM.

`CNS(=O)(=O)Nc1nccc(Cc2cncc(Nc3ccc(Cl)cc3F)n2)c1F` [Example 21, N-(4-chloro-2-fluoro-phenyl)-6-[[3-fluoro-2-(methylsulfamoylamino)-4-pyridyl]methyl]pyrazin-2-amine]: the IC50 was 500 to 1000 nM in data set [5] (Homo sapiens, IPC-298, 72 h); 10 to 100 nM in data set [2]; 10 to 100 nM in data set [3]; greater than 1000 nM in data set [6].

For the compound `Cc1c(Cc2ccnc([S+](C)[O-])c2F)cncc1Nc1ccc(Br)cc1F` (stereo not drawn) [Example 22], the IC50 in data set [5] (Homo sapiens, IPC-298, 72 h) was 10 to 100 nM; in data set [2], less than 10 nM; in data set [3] it was less than 10 nM; in data set [6], 100 to 500 nM.

`CNS(=O)(=O)Nc1nccc(Cc2cncc(Nc3ccc(OC)cc3F)c2C)c1F` [Example 23, 5-({3-fluoro-2-[(methylsulfamoyl)amino]pyridin-4-yl}methyl)-N-(2-fluoro-4-methoxyphenyl)-4-methylpyridin-3-amine]: the IC50 was less than 10 nM in data set [2], less than 10 nM in data set [3] and 10 to 100 nM in data set [6].

Consider `CNS(=O)(=O)Nc1nccc(Cc2cncc(OC)c2C)c1F` [Example 24, ({3-fluoro-4-[(5-methoxy-4-methylpyridin-3-yl)methyl]pyridin-2-yl}sulfamoyl)(methyl)amine], for which the IC50 in data set [5] (Homo sapiens, IPC-298, 72 h) was less than 10 nM; in data set [2], 10 to 100 nM; in data set [3] (numeric value), greater than 100 nM; in data set [6] it was 100 to 500 nM.

For the compound `CNS(=O)(=O)Nc1nccc(Cc2cncc(Nc3ccc(Cl)cc3F)c2F)c1F` [Example 26, 4-[[5-(4-chloro-2-fluoro-anilino)-4-fluoro-3-pyridyl]methyl]-3-fluoro-N-(methylsulfamoyl)pyridin-2-amine], the IC50 in data set [5] (Homo sapiens, IPC-298, 72 h) is 10 to 100 nM; in data set [2] it was less than 10 nM; in data set [3], less than 10 nM; in data set [6], 100 to 500 nM.

As for `CNS(=O)(=O)Nc1nccc(Cc2cncc(Oc3ccc(Cl)cn3)c2C)c1F` [Example 27, {[4-({5-[(5-chloropyridin-2-yl)oxy]-4-methylpyridin-3-yl}methyl)-3-fluoropyridin-2-yl]sulfamoyl}(methyl)amine], the IC50 in data set [5] (Homo sapiens, IPC-298, 72 h) is 10 to 100 nM; in data set [2] it was less than 10 nM; in data set [3], less than 10 nM; in data set [6], 500 to 1000 nM.

Regarding `Cc1c(Cc2ccnc(S(C)(=O)=O)c2F)cncc1Nc1ccc(Cl)cc1F` [Example 28, N-(4-chloro-2-fluorophenyl)-5-[(3-fluoro-2-methanesulfonylpyridin-4-yl)methyl]-4-methylpyridin-3-amine], the IC50 is 10 to 100 nM in data set [5] (Homo sapiens, IPC-298, 72 h); 10 to 100 nM in data set [2]; 10 to 100 nM in data set [3]; greater than 1000 nM in data set [6].

In the case of `CNS(=O)(=O)Nc1nccc(Cc2cncc(Nc3ccc(Cl)cc3OC)c2C)c1F` [Example 35, 4-[[5-(4-chloro-2-methoxy-anilino)-4-methyl-3-pyridyl]methyl]-3-fluoro-N-(methylsulfamoyl)pyridin-2-amine], the half-maximal inhibitory concentration (IC50) in data set [5] (Homo sapiens, IPC-298, 72 h) was less than 10 nM; in data set [2] it was less than 10 nM; in data set [3] it was less than 10 nM; in data set [6], less than 10 nM.

As to `CNS(=O)(=O)Nc1nccc(Cc2cncc(Nc3ccc(Cl)cc3F)c2OC)c1F` [Example 37, N-(4-chloro-2-fluorophenyl)-5-({3-fluoro-2-[(methylsulfamoyl)amino]pyridin-4-yl}methyl)-4-methoxypyridin-3-amine], the IC50 in data set [1] (numeric value) was 0.362 nM; in data set [5] (Homo sapiens, IPC-298, 72 h) it was less than 10 nM; in data set [2], less than 10 nM; in data set [3], less than 10 nM; in data set [6], 10 to 100 nM.

With `CNS(=O)(=O)Nc1nccc(Cc2cncc(Nc3ccc(Cl)cc3F)c2C(F)(F)F)c1F` [Example 38, N-(4-chloro-2-fluorophenyl)-5-({3-fluoro-2-[(methylsulfamoyl)amino]pyridin-4-yl}methyl)-4-(trifluoromethyl)pyridin-3-amine], the half-inhibitory concentration (IC50) in data set [1] (numeric value) was 0.241 nM; in data set [5] (Homo sapiens, IPC-298, 72 h), less than 10 nM; in data set [2], less than 10 nM; in data set [3] it was less than 10 nM; in data set [6], less than 10 nM.

For the compound `CNS(=O)(=O)Nc1nccc(Cc2cncc(Nc3ccc(OC(F)(F)F)cc3F)c2C)c1F` [Example 39], the IC50 in data set [1] (numeric value) was 0.354 nM; in data set [5] (Homo sapiens, IPC-298, 72 h) it was less than 10 nM; in data set [2], less than 10 nM; in data set [3] it was less than 10 nM; in data set [6] it was 10 to 100 nM.

With `CNS(=O)(=O)Nc1nccc(Cc2cncc(Oc3ccc(Cl)cc3F)n2)c1F` [Example 40, 4-[[6-(4-chloro-2-fluoro-phenoxy)pyrazin-2-yl]methyl]-3-fluoro-N-(methylsulfamoyl)pyridin-2-amine], the IC50 in data set [1] (numeric value) was greater than 1000 nM; in data set [5] (Homo sapiens, IPC-298, 72 h), greater than 1000 nM; in data set [2], greater than 1000 nM; in data set [3], greater than 1000 nM; in data set [6], greater than 1000 nM. In addition, the viability at 100 µM in data set [5] (Homo sapiens, IPC-298, 72 h, read-out: CTG % cell viability 100 uM IPC298.2, IPC298 cells, 72 hours, 100 uM, percent cells remaining after treatment) was determined as 95.2%. The viability at 1000 µM in data set [6] (setting [7]) was found to be 101%.

Regarding `CNS(=O)(=O)Nc1nccc(Cc2cncc(Nc3nc4c(cc3F)OCCO4)c2C)c1F` [Example 41, 7-fluoro-N-[5-[[3-fluoro-2-(methylsulfamoylamino)-4-pyridyl]methyl]-4-methyl-3-pyridyl]-2,3-dihydro-[1,4]dioxino[2,3-b]pyridin-6-amine], the IC50 in data set [1] (numeric value) is 2.32 nM; in data set [5] (Homo sapiens, IPC-298, 72 h), 10 to 100 nM; in data set [2] it was less than 10 nM; in data set [3], less than 10 nM; in data set [6], 100 to 500 nM.

In the case of `CNS(=O)(=O)Nc1nccc(Cc2cncc(Nc3cc4c(cc3F)OCCO4)c2C)c1F` [Example 42, 3-fluoro-4-[[5-[(6-fluoro-2,3-dihydro-1,4-benzodioxin-7-yl)amino]-4-methyl-3-pyridyl]methyl]-N-(methylsulfamoyl)pyridin-2-amine], the IC50 in data set [1] (numeric value) is 0.791 nM; in data set [5] (Homo sapiens, IPC-298, 72 h) it was 10 to 100 nM; in data set [2], less than 10 nM; in data set [3], less than 10 nM; in data set [6], 100 to 500 nM.

The values are drawn from patent publication US20250288571A1 (Nested Therapeutics, Inc., priority 2024, published 2025).
